Results as given in patent publication US10758522B2, “Small molecule analogs of the nemo binding peptide” (THE SCRIPPS RESEARCH INSTITUTE, priority 2015, dated 2020).
Entries after “also recorded” stand apart in the source; their conditions may differ.

How the values were obtained:
NF-κB [1] = assay: EMSA of NF-κB DNA binding in C2C12 cells; format: cell-based, mouse; conditions: 200 μM
Procedure: To confirm that the NBD mimetics reduce IKK activity, the extent of phosphorylation of the IKK target, IκBα, in response to 10 ng/ml of TNF-α was determined by Western blot at 0, 5 and 10 min after TNF-α stimulation. […] To determine if the mimetics also reduce NF-κB DNA binding activity, electrophoretic mobility shift assay (EMSA) was conducted both in vivo and in vitro.
Cytoplasmic and nuclear fractions were extracted using the NE-PER nuclear and cytoplasmic extraction reagents (ThermoFisher) according to the manufacturer's instructions. The gel shift assay was performed by following the previously described method (41). In brief, 5 μg of nuclear extract was incubated with gel shift binding buffer and an α-^32P-deoxycytodine triphosphate-radiolabeled NF-κB probe for 20 min at room temperature (MP Biomedicals). The oligonucleotide sequences are as follows: NF-κB template, 5′-[…]-3′; NF-κB annealing, 5′-[…]-3′. The reaction product was separated on a 6% non-denaturing polyacrylamide gel.

[2] = target: T1, IKK complex (IKKß, IKKα and NEMO) (Homo sapiens, UniProt Q9Y6K9); assay: Co-immunoprecipitation of NEMO with IKKß in 293 cells; format: cell-based; conditions: Zinc-5 at 4 hours, Zinc-13 at 1 hour, NBD peptide at 4 hours
T1 construct: analyzed by Western blot for the level of co-precipitated NEMO; endogenous in cells; host or cells: 293 (HEK293) cells
T1 sequence (Q9Y6K9 whole entry, one chain of several): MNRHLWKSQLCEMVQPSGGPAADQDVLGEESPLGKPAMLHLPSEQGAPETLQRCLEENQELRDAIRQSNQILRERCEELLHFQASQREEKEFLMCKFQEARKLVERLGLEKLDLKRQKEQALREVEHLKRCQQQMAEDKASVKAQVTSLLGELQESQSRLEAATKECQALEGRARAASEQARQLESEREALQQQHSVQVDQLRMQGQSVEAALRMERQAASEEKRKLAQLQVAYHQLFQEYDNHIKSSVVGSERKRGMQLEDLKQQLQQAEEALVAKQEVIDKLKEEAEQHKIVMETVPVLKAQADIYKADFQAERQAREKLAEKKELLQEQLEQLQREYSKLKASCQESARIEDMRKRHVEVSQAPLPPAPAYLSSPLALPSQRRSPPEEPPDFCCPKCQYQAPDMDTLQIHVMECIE
From the text: FIG. 8 is a bar graph showing the inhibition of TNFα by NBDA-1 (Zinc-13). […] In addition, we have examined the ability of the compounds to disrupt the IKK complex, comprised of IKKß, IKKα and NEMO.
A non-functional, related compound Zinc-7 had no effect.

[3] = Degradation in the presence of serum; format: in vitro ADME; conditions: data not shown
[4] = tested on: embryonic fibroblasts from Ercc1−/− mice; assay: Senescence rescue assay in ERCC1-deficient murine embryonic fibroblasts (SA-ß-gal); format: cell-based, mouse; conditions: oxidative stress conditions (20% O2)
From the text: In an attempt to identify new drugs able to improve healthspan, we have developed an assay for screening for drugs able to rescue primary “aged” fibroblasts from senescence. This assay uses murine embryonic fibroblasts (MEFs) from mice with accelerated aging due to a deficiency in an important DNA repair pathway, ERCC1-XPF. These MEFs undergo rapid senescence in culture, especially when grown under the high oxygen conditions that confers oxidative stress (FIGS. 18 and 19).

[5] = tested on: K14-Cre; Ercc1−/flox mice; assay: Topical treatment of skin aging in K14-Cre; Ercc1−/flox mice; format: in vivo, mouse; conditions: daily
Procedure: To test the ability of NBDA-1 to function in vivo, the drug was tested in several models of aging. In FIG. 12, the ability of topical treatment of NBDA-1 to reduce signs of skin aging is shown. Areas on the back of normal mice or mice with enhanced skin aging (K14-Cre; Ercc1^−/flox) were shaved and then treated daily with drugs or control creams.

Ercc1−/Δ mice = assay: Chronic treatment of Ercc1−/Δ mouse model of accelerated aging with SR12343; format: in vivo
From the text: FIG. 41 summarizes the regimen and endpoints for the study of the effects of NBD mimetics on aging using the Ercc1^−/Δ mouse model of accelerated aging
Thus these novel NBD mimetics could be used not only for treatment of inflammatory and degenerative diseases, but also aging.

[6] = tested on: K14-Cre+/−; Ercc1−/fl; Skh1−/− mice; assay: Naked mouse skin photoaging study, topical treatment; format: in vivo
Procedure: Naked mice of strain K14-Cre^+/−; Ercc1^−/fl; Skh1^−/− were treated with SR12343 versus vehicle control, then exposed to UV light for […]. The NBD mimetic SR12343 and SR2460 were tested for their ability to reduce the effects of photoaging in a mouse model. To make analysis of skin aging easier, usually hairless mice are utilized. Previously studies have shown that exposure of the hairless Skh1^−/− mouse to UV results in skin aging over 5 months as measured by skin thickness, elastosis, collagen damage, synthesis and degradation, increased ratio of collagen III to I, increased GAGs, and wrinkles and sagging. To accelerate this photoaging process, we generated a mouse model where Ercc1-dependent DNA repair activity is eliminated in K14 expressing skin cells in the Skh1^−/− mice (K14-Cre^+/−; Ercc1^−/fl; Skh1^−/− mice). In these mice, chronic UV exposure gives rise to evidence of photoaging 6 times faster than in the Skh1^−/− mice, allowing for analysis of skin aging in 2-4 weeks (FIGS. 51 (A, B, and C).
For testing of drugs for effects on photoargng in the K14-Cre^+/−; Ercc1^−/fl; Skh1^−/− mice, the mice are first tattooed to outlined quadrants for drug treatment. The mice were then exposed to UV 3× (total of 1 kJ/m^2/wk) for 4 weeks in a tanning booth. This dose regiment is the equivalent of one year of sun exposure.
A 50 mg/ml solution of SR12343 was then prepared in a DMSO gel for topical application. The SR12343 gel was administered topically 5 times per week and mice exposed to UV 3× per week as indicated. It is important to note that the compound was administered following UV dosing to eliminate any anti-UV effects of the drug. At the midway point and at the end of the experiment, the mice were analyzed using a TEWL Meter for skin thickness, elasticity and hydration. At the time of sacrifice, skin sections are taken for analysis of the extent of cellular senescence by RT-PCR.

NF-κB [7] = assay: Dual-luciferase (NF-κB firefly / SV40 Renilla) reporter assay in HEK293 cells; format: cell-based; conditions: Homo sapiens; inhibition of TNF-α-induced NF-κB activation, HEK293, luciferase assays at 0, 25, 50, 100 and 150 μM, GraphPad
Procedure: Thus seven rounds of structural modification and optimization were performed to improve bioactivity and stability and more than one hundred small molecules were tested (data not shown). […] To minimize the influence of drug toxicity on the screening assay, a renilla luciferase reporter driven by the SV40 promoter was cotransfected with the NF-κB luciferase reporter into HEK293 cells as a co-reporter for normalization.
Inhibitory effects of NBD mimetics on NF-κB activation were measured by luciferase assays at multiple concentrations: 0, 25, 50, 100 and 150 μM. IC50 of NBD mimetics was determined based on the dose-dependent curve by using GraphPad.
HEK293 cells grown in 10 cm plates were co-transfected with co-reporter of Renilla plasmid driven by SV40 and luciferase plasmid driven by NF-κB at the ratio of 1:3 with Lipofectamine 2000 (Invitrogen). Transiently transfected HEK293 were grown and treated as described above and subjected to a dual-luciferase reporter assay according to the manufacturer's instruction. Firefly luciferase activity was normalized to Renilla luciferase to get the relative luciferase activity.

For `Nc1ncccc1C(=O)OCC(=O)Nc1ccc(Cl)cc1F` [NBDA-1, 2-((4-chloro-2-fluorophenyl)amino)-2-oxoethyl 2-aminonicotinate], the “TNFα-induced NF-κB DNA binding activity (EMSA)” value (NF-κB [1]) was “significantly decreased TNFα-induced NF-κB DNA binding activity”, the “level of NEMO co-immunoprecipitated with IKKß” value [2] was “reduced the level of co-immunoprecipitated NEMO; also recorded: disrupt the interaction between IKKß and IKKgamma” and the “degradation in the presence of serum” value [3] was “rapid degradation in the presence of serum”. For the same molecule, the “senescence (SA-ß-gal staining) of ERCC1-deficient MEFs” value [4] was “reduced senescence” and the “epidermal thickness / skin architecture” value [5] was “improved epidermal thickness to a greater extent than the peptide on which it was modeled”.
For `O=C(CNc1ccc(Cl)cn1)NCCc1cccc(Br)c1` [SR12343, N-(3-bromophenethyl)-2-((5-chloropyridin-2-yl)amino)acetamide], the “glycosaminoglycan (GAG) in intervertebral disc nucleus pulposus” value (Ercc1−/Δ mice) was “improves pathology in the intervertebral disc as determined by measuring proteoglycans (GAG)”, the healthspan (Ercc1−/Δ mice) was “extension of healthspan” and the “clearance of blood glucose (oral glucose tolerance test)” value (Ercc1−/Δ mice; 15 wk-old mice) was “improves clearance of glucose in an oral glucose tolerance test”. The senescence (Ercc1−/Δ mice; 15 wk-old mice) was “reduces senescence”, the “aging symptoms associated with frailty” value (Ercc1−/Δ mice; different ages) was “reduces the onset of symptoms associated with frailty” and the “overall score of the aging symptoms” value (Ercc1−/Δ mice; different ages) was “reduces the onset of symptoms with chronic treatment”. The “body fat percentage (NMR)” value (Ercc1−/Δ mice; male mice) was “reduces loss of fat in male mice”, the forelimb grip strength (Ercc1−/Δ mice; male mice) was “improves grip strength in male mice” and the “overall appearance of the skin, wrinkles” value ([6]; 50 mg/ml in DMSO gel, topical 5 times per week, UV 3× per week) was “reducing the number and depth of the wrinkles”. For the same molecule, the skin elasticity ([6]; topical gel, UV-exposed) was “restores skin elasticity”, the skin hydration ([6]; topical gel, UV-exposed) was “improved skin hydration” and the “expression of senescent marker p16 in skin” value ([6]; topical gel, UV-exposed, RT-PCR) was “lowered the expression of senescent markers such as p16”. The “molecular markers of skin aging and appearance of the skin” value ([6]; topical treatment) was “improved molecular markers of skin aging as well as the overall appearance of the skin”.
With `O=C(CNCCc1cc(F)cc(F)c1)Nc1ccc(Cl)cn1` [SR12460, N-(5-chloropyridin-2-yl)-2-((3,5-difluorophenethyl)amino)acetamide] the IC50 (NF-κB [7]) was 11.2 µM.
